Assay: gradient 5% acetonitrile 3 min, to 50% in 2 min, to 85% in 15 min, held 3 min, 100 µL/min
Details: column: Zorbax Extend-C18 2.1 x 50 mm; eluents: water / acetonitrile, 0.1% formic acid
Outline: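 Standards, all pure, were combined into mixtures of ~100 molecules and run at 100 μL/min on a Zorbax Extend-C18 column (2.1 × 50 mm, 1.8 μm) with water and acetonitrile, each containing 0.1% formic acid. A coupled quadrupole time-of-flight mass spectrometer operated in positive and negative ionization mode. Retention time values come from computationally picked adduct peaks, each inspected manually.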

## Cc1cc(C)c(C)c(S(=O)(=O)NCC(=O)NCC2CCCO2)c1C (stereo not given)
  RP-LC retention time: 724 s

## NC(=O)Cc1ccc2c(c1)[nH]c1ccccc12
  RP-LC retention time: 756 s

## CCc1noc(-c2ccc(SCC(=O)N3CCN(c4ccccn4)CC3)nc2)n1
  RP-LC retention time: 619 s

## Clc1ccc(Cl)c(-c2ccc(CNCCCn3ccnc3)o2)c1
  RP-LC retention time: 589 s

## Cc1ccc(-n2cc3c(N4CCCC(C(=O)NC(C)c5ccc(C)cc5C)C4)ncnc3n2)cc1 (stereo not given)
  RP-LC retention time: 814 s

## CCOC(=O)c1c(C)[nH]c(C)c1S(=O)(=O)N1CCC(C(=O)NCc2ccccc2)CC1
  RP-LC retention time: 754 s

## Cc1cc(Cl)ccc1S(=O)(=O)N1CC(Cc2nncn2C2CCCC2)C1
  RP-LC retention time: 808 s

## CCCOc1ccc(C(=O)Nc2nnc(SCc3nnc(-c4ccccc4C)o3)s2)cc1
  RP-LC retention time: 1110 s

## O=C(NC1CCCCCC1)c1nc(-c2ccnc(N3CCCCC3)c2)no1
  RP-LC retention time: 883 s

## CC1=C(C(=O)NCCCN2CCN(Cc3ccccc3)CC2)C2(CCCCC2)OC1=O
  RP-LC retention time: 627 s

## Cc1ccc(CNS(=O)(=O)c2c(C)nc3sc(C)nn23)o1
  RP-LC retention time: 710 s

## COc1ccc(OCC2CN(C(=O)Cc3ccc(OC)c(OC)c3OC)CCO2)cc1 (stereo not given)
  RP-LC retention time: 794 s

## COc1ccc(CCc2nc3nccc(-c4cccc(OC)c4)n3n2)cc1
  RP-LC retention time: 879 s

## CCS(=O)(=O)N1CC(=O)N(c2ccc(F)cc2)C(C)(C(=O)NC2CCCCCCC2)C1 (stereo not given)
  RP-LC retention time: 938 s

## Cc1cccc(N2CCN(C(=O)c3cn4cc(C)ccc4n3)CC2)c1
  RP-LC retention time: 702 s

## COCC1CN(C(=O)c2ccc(Cc3c(C)noc3C)o2)CC12CCNCC2 (stereo not given)
  RP-LC retention time: 586 s

## CCC(=O)N(CC(=O)N1CCc2sccc2C1COc1ccccc1OC)C1CC1 (stereo not given)
  RP-LC retention time: 871 s

## Cc1cc(C)c2c(N3CCCC3)nc(C(=O)Nc3ccc(N4CCOCC4)cc3)nc2n1
  RP-LC retention time: 612 s

## CCn1nnc2c(N3CCN(CC(=O)NC4CCCC4)CC3)ncnc21
  RP-LC retention time: 550 s

## CCOC(=O)c1cc(-c2ccc(OC)c(S(=O)(=O)N3CCN(c4ccccn4)CC3)c2)on1
  RP-LC retention time: 726 s

## CCOc1ccc(CNC(=O)c2cn3c(n2)CCCC3)cc1
  RP-LC retention time: 606 s

## CC1Oc2ccc(-c3csc(NC(=O)c4ccco4)n3)cc2NC1=O (stereo not given)
  RP-LC retention time: 783 s

## COc1ccc(CN2CN=C(Nc3nc(C)c4cc(C)ccc4n3)NC2)cc1
  RP-LC retention time: 766 s

## COCCCNCc1ccc(-c2ccccc2Cl)o1
  RP-LC retention time: 672 s

## O=C(N[C@H]1C[C@@H]2C[C@H]1N(C(=O)c1cccc(Cl)c1)C2)c1ccccc1
  RP-LC retention time: 748 s

## Cc1c(CNCc2ccco2)c(C(=O)O)c(C)n1Cc1cccc(Cl)c1
  RP-LC retention time: 702 s

## COc1ccc(C(=O)Nc2nc(-c3ccc4c(c3)N(C)C(=O)CO4)c(C)s2)cc1OC
  RP-LC retention time: 906 s

## Cc1csc(NC(=O)C2CCN(S(=O)(=O)c3cc(C(=O)N4CCOCC4)cs3)CC2)n1
  RP-LC retention time: 702 s

## COc1ccc(C2c3cc4c(c(OC)c3CC3OCC(=O)C32)OCO4)cc1OC (stereo not given)
  RP-LC retention time: 609 s

## CSc1ncccc1-c1nnc(C)o1
  RP-LC retention time: 712 s

## CCC(=O)Oc1ccc(NC(=O)c2ccc(S(=O)(=O)N3CCCC3)cc2)cc1
  RP-LC retention time: 884 s

## COc1ccc(OC)c(NC(=O)C(=O)c2ccc[nH]2)c1
  RP-LC retention time: 909 s

## Cc1cccc(Cn2cc(C(=O)O)c3ccccc3c2=O)c1
  RP-LC retention time: 857 s

## CCOc1cc(=O)n2c(c1C(=O)Nc1cccc(Br)c1)CCCC2
  RP-LC retention time: 802 s

## Cc1cc(S(=O)(=O)N2CCC(n3cnnc3-c3ccccc3)CC2)ccc1F
  RP-LC retention time: 840 s

## Cc1ccccc1CNC(=O)C1=C2CCCN2c2ccc(F)cc2S1(=O)=O
  RP-LC retention time: 918 s

## O=C(NCc1ccccc1Cl)c1ccc(NC(=O)C2CCC2)cc1N1CCOCC1
  RP-LC retention time: 873 s

## O=S(=O)(Nc1cccn2c(C3CCC3)nnc12)c1ccc2c(c1)OCCO2
  RP-LC retention time: 751 s

## CCOc1ccc(CNC(=O)C2CCN(c3cnc4nccnc4c3)CC2)cc1
  RP-LC retention time: 698 s

## COCCCNC(=O)COc1ccccc1-c1nnc(-c2ccccc2)o1
  RP-LC retention time: 900 s

## Cc1nnsc1C(=O)N1CCC(c2nnc(-c3ccco3)o2)CC1
  RP-LC retention time: 617 s

## Cc1ccc(NC(=O)Cc2nnc(-c3cnccn3)o2)cc1
  RP-LC retention time: 698 s

## Cc1ccc(Cn2c(CCCC(=O)N3CCN(c4ncccn4)CC3)nc3cccnc32)cc1
  RP-LC retention time: 744 s

## CCOc1ccc(C(=O)N2C[C@H](c3nc(-c4ccccc4)no3)[C@@H](C)C2)cc1
  RP-LC retention time: 1070 s

## Cc1cc(C)n(Cc2nc(-c3ccc(NC(=O)C4CCCC4)cc3)oc2C)n1
  RP-LC retention time: 931 s

## COC(=O)c1ccc(NC(=O)N2CCCC2c2ccc(OC)cc2)cc1 (stereo not given)
  RP-LC retention time: 906 s

## O=S(=O)(c1ccc2nc(N3CCN(c4ccccc4)CC3)ccc2c1)N1CCCCC1
  RP-LC retention time: 1030 s

## CS(=O)(=O)N1CCC(C(=O)N2CC3CC(C2)c2cccc(=O)n2C3)CC1 (stereo not given)
  RP-LC retention time: 528 s

## Cc1noc2ncn(CC(=O)NCCCc3ccccc3)c(=O)c12
  RP-LC retention time: 764 s

## CC(C)C(NC(=O)CCc1ccccc1)C(=O)Nc1nc2ccccc2[nH]1 (stereo not given)
  RP-LC retention time: 718 s

## Cc1nnc(-c2nnc(NCC3CCCCC3)c3ccccc23)o1
  RP-LC retention time: 772 s

## Cc1nn(C)cc1S(=O)(=O)NCCc1c[nH]c2ccccc12
  RP-LC retention time: 683 s

## CCN(Cc1ccccc1)c1ccc(-c2noc(CN3CCN(C)CC3)n2)cn1
  RP-LC retention time: 670 s

## Cc1cccc(OCCc2noc(C3CN(Cc4ccc(C)s4)C3)n2)c1
  RP-LC retention time: 761 s

## O=C(Nc1ccccc1)[C@@H]1OCC(=O)N(C2CC2)[C@H]1c1ccccc1
  RP-LC retention time: 775 s

## CCCCN1CCN(Cc2nc3nc(C)cc(N4CCCC4)n3n2)CC1
  RP-LC retention time: 574 s

## CCOC(=O)N1CCN(c2ncc(S(=O)(=O)c3ccc(Cl)cc3)c(N)n2)CC1
  RP-LC retention time: 910 s

## CCc1ccc(NC(=O)C2CCN(S(=O)(=O)c3ccc4c(c3)NC(=O)C(CC)O4)CC2)cc1 (stereo not given)
  RP-LC retention time: 963 s

## CCCc1ccc(S(=O)(=O)N2CCC(c3nc4ccncc4n3CCOC)C2)cc1 (stereo not given)
  RP-LC retention time: 610 s

## Cc1sc(-c2cc(C(F)(F)F)on2)cc1S(=O)(=O)Nc1ccc(F)cc1
  RP-LC retention time: 1120 s

## CCOc1ccc(CNC(=O)C2CCCN(c3ccc(=O)n(-c4ccc(CC)cc4)n3)C2)cc1 (stereo not given)
  RP-LC retention time: 940 s

## Cc1ccc(NC(=O)NC2CCN(c3ccccc3)C2=O)cc1 (stereo not given)
  RP-LC retention time: 821 s

## CCOC(=O)Cc1cc(=O)c2cc(C)ccc2[nH]1
  RP-LC retention time: 695 s

## Cc1ccc(Cl)cc1NC(=O)Cn1cccc1-c1nnc(C2CC2)o1
  RP-LC retention time: 956 s

## Cn1c(=O)n(C)c2cc(S(=O)(=O)N3CCN(c4ccccn4)CC3)c(Cl)cc21
  RP-LC retention time: 602 s

## Cc1ccc(NC(=O)NC2CCN(c3ccccc3)C2=O)cc1Cl (stereo not given)
  RP-LC retention time: 915 s

## Cc1cccc(N2CCN(C(=O)CN3CCN(Cc4ccc(F)cc4Cl)C3=O)CC2)c1
  RP-LC retention time: 957 s

## Cc1nc(-c2nnn(-c3ccc(Cl)cc3)c2C)sc1C(=O)NC1CCCCC1
  RP-LC retention time: 1160 s

## Cc1ccc(NC(=O)Cc2c(C)nn(-c3nc(-c4ccc(Cl)cc4)cs3)c2C)cc1C
  RP-LC retention time: 852 s

## CCOc1ccc(CN2CC(N(Cc3ccncc3)S(C)(=O)=O)C2)cc1
  RP-LC retention time: 560 s

## CCC1CN2C=NC(N3CCN(C(=O)Nc4cccc(SC)c4)CC3)=CC2=N1 (stereo not given)
  RP-LC retention time: 663 s

## COCc1noc([C@@H]2CN(C(=O)C3CC=CC3)C[C@H]2C(N)=O)n1
  RP-LC retention time: 609 s

## CC1CCC(NC(=O)C2CCN(c3cnn(Cc4ccccc4)c(=O)c3)CC2)CC1 (stereo not given)
  RP-LC retention time: 841 s

## CCc1nnc2ccc(-c3noc(-c4ccc(OC)c(OC)c4)n3)cn12
  RP-LC retention time: 829 s

## CCOCCCNC(=O)Nc1ccc2c(c1)CCN2S(=O)(=O)c1ccccc1
  RP-LC retention time: 803 s

## Cc1ccc(-c2nc3ncccn3c2NCc2ccc(F)cc2)cc1C
  RP-LC retention time: 789 s

## CC(C)CC(=O)N1CCCC(COc2ccc(C(=O)NC(C)C)cc2)C1 (stereo not given)
  RP-LC retention time: 827 s

## CCS(=O)(=O)N1CCc2nc(-c3ccc(F)cc3)ncc2C1
  RP-LC retention time: 847 s

## COC(=O)[C@H]1[C@H]2C[C@H]3c4[nH]c5ccccc5c4CCN3C[C@H]2CC[C@@H]1O
  RP-LC retention time: 671 s

## CCc1nnc(NC(=O)C2CCN(C(=O)c3ccccc3F)CC2)s1
  RP-LC retention time: 675 s

## COc1ccc(-c2c(C)noc2NC(C)=O)cc1S(=O)(=O)NCC(C)c1ccccc1 (stereo not given)
  RP-LC retention time: 838 s

## Brc1ccccc1-c1nn2c(-c3ccccn3)nnc2s1
  RP-LC retention time: 836 s

## COc1ccc(CCC(=O)N2CCCC2c2cc(C)on2)cc1 (stereo not given)
  RP-LC retention time: 775 s

## Cc1sc(-c2nnc(C3CC3)o2)cc1NC(=O)c1ccnn1C
  RP-LC retention time: 796 s

## Cc1ccc(CNC(=O)CN2C(=O)C3CCCN3C(=O)c3cccc(C)c32)cc1 (stereo not given)
  RP-LC retention time: 736 s

## Cc1cc(C)n2nc(SCC(=O)Nc3cccc(Cl)c3)nc2n1
  RP-LC retention time: 789 s

## CCSc1ccccc1C(=O)Nc1ccc(-c2nc(C)no2)cc1
  RP-LC retention time: 878 s

## Cc1cc2c(c(=O)n(-c3ccccc3)c(=O)n2CC(=O)Nc2ccc(Cl)cc2)n1C
  RP-LC retention time: 885 s

## Cc1ccn2cc(C(=O)NCc3ccccc3C)nc2c1
  RP-LC retention time: 708 s

## O=C(CCn1nnc2cc(-c3noc(COc4ccc(Cl)cc4)n3)ccc21)N1CCCC1
  RP-LC retention time: 942 s
